Laboratory results taken from the supplement of paper PMC10307832.

Columns and labels:
Assay in all cases: relative viability (nuclei count vs DMSO), 5 days (fraction); higher = more cells survive
NCI-H2170 = system: NCI-H2170
Procedure, shortened: (§1)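 Nuclei were stained with Hoechst during a one-step fixation (final 0.05% Triton X-100, 1% formaldehyde, 1 ug/ml Hoechst) carried out 5 days after dosing, then counted on 4× images. The cells, lung cancer lines in 1536-well plates, had been dosed by pin tool the day after seeding with one drug alone or a fixed anchor-drug dose plus five library-drug doses (not always all listed) in √10 steps. Relative viability is the nuclei count in treated wells divided by that in vehicle wells, and each value is the median of duplicate plates.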

NCI-H520 = system: NCI-H520
Procedure, shortened: as §1

EMC-BAC-2 = system: EMC-BAC-2
Procedure, shortened: as §1

NCI-H1993 = system: NCI-H1993
Procedure, shortened: as §1

PC-3 [JPC-3] = system: PC-3 [JPC-3]
Procedure, shortened: as §1

NCI-H1975 = system: NCI-H1975
Procedure, shortened: as §1

LCLC-97TM1 = system: LCLC-97TM1
Procedure, shortened: as §1

NCI-H1944 = system: NCI-H1944
Procedure, shortened: as §1

NCI-H1793 = system: NCI-H1793
Procedure, shortened: as §1

NCI-H2009 = system: NCI-H2009
Procedure, shortened: as §1

NCI-H1666 = system: NCI-H1666
Procedure, shortened: as §1

PC-14 = system: PC-14
Procedure, shortened: as §1

NCI-H522 = system: NCI-H522
Procedure, shortened: as §1

NCI-H647 = system: NCI-H647
Procedure, shortened: as §1

SW 1573 = system: SW 1573
Procedure, shortened: as §1

NCI-H727 = system: NCI-H727
Procedure, shortened: as §1

NCI-H460 = system: NCI-H460
Procedure, shortened: as §1

NCI-H2126 = system: NCI-H2126
Procedure, shortened: as §1

NCI-H1755 = system: NCI-H1755
Procedure, shortened: as §1

SK-LU-1 = system: SK-LU-1
Procedure, shortened: as §1

NCI-H2347 = system: NCI-H2347
Procedure, shortened: as §1

`COCC1(CO)C(=O)C2CCN1CC2` (stereo unspecified) [PRIMA-1MET] + CC(=O)c1c(C)c2cnc(Nc3ccc(N4CCNCC4)cn3)nc2n(C2CCCC2)c1=O [Palbociclib] (partner 0.5 µM) was tested, and the relative viability (NCI-H2170; first compound 0.2 µM) was 0.422, the relative viability (NCI-H2170; first compound 0.6325 µM) was 0.36 and the relative viability (NCI-H2170; first compound 2 µM) was 0.391. It also gave a relative viability (NCI-H2170; first compound 6.325 µM) of 0.449, a relative viability (NCI-H2170; first compound 20 µM) of 0.379 and a relative viability (NCI-H520; first compound 0.2 µM) of 0.249. For the same compound, the relative viability (NCI-H520; first compound 2 µM) was 0.202, the relative viability (NCI-H520; first compound 6.325 µM) was 0.216 and the relative viability (NCI-H520; first compound 20 µM) was 0.142. It also gave a relative viability (EMC-BAC-2; first compound 0.2 µM) of 0.586, a relative viability (EMC-BAC-2; first compound 0.6325 µM) of 0.466 and a relative viability (EMC-BAC-2; first compound 2 µM) of 0.478. It also gave a relative viability (EMC-BAC-2; first compound 6.325 µM) of 0.503, a relative viability (EMC-BAC-2; first compound 20 µM) of 0.499 and a relative viability (NCI-H1993; first compound 0.2 µM) of 0.668. It also gave a relative viability (NCI-H1993; first compound 2 µM) of 0.715, a relative viability (NCI-H1993; first compound 6.325 µM) of 0.698 and a relative viability (NCI-H1993; first compound 20 µM) of 0.703. It also gave a relative viability (PC-3 [JPC-3]; first compound 0.2 µM) of 0.597, a relative viability (PC-3 [JPC-3]; first compound 0.6325 µM) of 0.608 and a relative viability (PC-3 [JPC-3]; first compound 2 µM) of 0.573. It also gave a relative viability (PC-3 [JPC-3]; first compound 6.325 µM) of 0.574, a relative viability (PC-3 [JPC-3]; first compound 20 µM) of 0.521 and a relative viability (NCI-H1975; first compound 0.2 µM) of 0.513. For the same compound, the relative viability (NCI-H1975; first compound 0.6325 µM) was 0.483, the relative viability (NCI-H1975; first compound 2 µM) was 0.409 and the relative viability (NCI-H1975; first compound 6.325 µM) was 0.693. For the same compound, the relative viability (NCI-H1975; first compound 20 µM) was 0.582, the relative viability (LCLC-97TM1; first compound 0.2 µM) was 0.215 and the relative viability (LCLC-97TM1; first compound 0.6325 µM) was 0.192. It also gave a relative viability (LCLC-97TM1; first compound 2 µM) of 0.193, a relative viability (LCLC-97TM1; first compound 6.325 µM) of 0.264 and a relative viability (LCLC-97TM1; first compound 20 µM) of 0.206. For the same compound, the relative viability (NCI-H1944; first compound 0.2 µM) was 0.357, the relative viability (NCI-H1944; first compound 0.6325 µM) was 0.285 and the relative viability (NCI-H1944; first compound 2 µM) was 0.288. The relative viability (NCI-H1944; first compound 6.325 µM) was 0.312, the relative viability (NCI-H1944; first compound 20 µM) was 0.295 and the relative viability (NCI-H1793; first compound 0.2 µM) was 0.326. The relative viability (NCI-H1793; first compound 0.6325 µM) was 0.32, the relative viability (NCI-H1793; first compound 6.325 µM) was 0.332 and the relative viability (NCI-H1793; first compound 20 µM) was 0.331. For the same compound, the relative viability (NCI-H2009; first compound 0.2 µM) was 0.185, the relative viability (NCI-H2009; first compound 0.6325 µM) was 0.251 and the relative viability (NCI-H2009; first compound 2 µM) was 0.112. For the same compound, the relative viability (NCI-H2009; first compound 6.325 µM) was 0.215, the relative viability (NCI-H2009; first compound 20 µM) was 0.0008 and the relative viability (NCI-H1666; first compound 0.2 µM) was 0.69. It also gave a relative viability (NCI-H1666; first compound 0.6325 µM) of 0.647, a relative viability (NCI-H1666; first compound 2 µM) of 0.614 and a relative viability (NCI-H1666; first compound 6.325 µM) of 0.699. It also gave a relative viability (NCI-H1666; first compound 20 µM) of 0.695, a relative viability (PC-14; first compound 0.2 µM) of 0.644 and a relative viability (PC-14; first compound 0.6325 µM) of 0.476. For the same compound, the relative viability (PC-14; first compound 2 µM) was 0.509, the relative viability (PC-14; first compound 6.325 µM) was 0.525 and the relative viability (PC-14; first compound 20 µM) was 0.0303. For the same compound, the relative viability (NCI-H522; first compound 0.2 µM) was 1.05, the relative viability (NCI-H522; first compound 0.6325 µM) was 0.94 and the relative viability (NCI-H522; first compound 2 µM) was 0.862. For the same compound, the relative viability (NCI-H522; first compound 6.325 µM) was 0.774, the relative viability (NCI-H522; first compound 20 µM) was 0.25 and the relative viability (NCI-H647; first compound 0.2 µM) was 0.449. The relative viability (NCI-H647; first compound 0.6325 µM) was 0.387, the relative viability (NCI-H647; first compound 2 µM) was 0.276 and the relative viability (NCI-H647; first compound 6.325 µM) was 0.481. The relative viability (NCI-H647; first compound 20 µM) was 0.42, the relative viability (SW 1573; first compound 0.2 µM) was 0.456 and the relative viability (SW 1573; first compound 0.6325 µM) was 0.317. For the same compound, the relative viability (SW 1573; first compound 2 µM) was 0.345, the relative viability (SW 1573; first compound 6.325 µM) was 0.0953 and the relative viability (SW 1573; first compound 20 µM) was 0.0194. It also gave a relative viability (NCI-H727; first compound 0.2 µM) of 0.629, a relative viability (NCI-H727; first compound 0.6325 µM) of 0.584 and a relative viability (NCI-H727; first compound 6.325 µM) of 0.672. For the same compound, the relative viability (NCI-H727; first compound 20 µM) was 0.379, the relative viability (NCI-H460; first compound 0.2 µM) was 0.153 and the relative viability (NCI-H460; first compound 0.6325 µM) was 0.139. It also gave a relative viability (NCI-H460; first compound 2 µM) of 0.168, a relative viability (NCI-H460; first compound 6.325 µM) of 0.114 and a relative viability (NCI-H460; first compound 20 µM) of 0.0061. The relative viability (NCI-H2126; first compound 0.2 µM) was 0.335, the relative viability (NCI-H2126; first compound 0.6325 µM) was 0.336 and the relative viability (NCI-H2126; first compound 2 µM) was 0.321. It also gave a relative viability (NCI-H2126; first compound 6.325 µM) of 0.372, a relative viability (NCI-H2126; first compound 20 µM) of 0.326 and a relative viability (NCI-H1755; first compound 0.2 µM) of 0.479. For the same compound, the relative viability (NCI-H1755; first compound 0.6325 µM) was 0.397, the relative viability (NCI-H1755; first compound 2 µM) was 0.43 and the relative viability (NCI-H1755; first compound 6.325 µM) was 0.482. For the same compound, the relative viability (NCI-H1755; first compound 20 µM) was 0.459, the relative viability (SK-LU-1; first compound 0.2 µM) was 0.395 and the relative viability (SK-LU-1; first compound 0.6325 µM) was 0.385. It also gave a relative viability (SK-LU-1; first compound 2 µM) of 0.255, a relative viability (SK-LU-1; first compound 6.325 µM) of 0.376 and a relative viability (SK-LU-1; first compound 20 µM) of 0.32. It also gave a relative viability (NCI-H2347; first compound 0.2 µM) of 0.451, a relative viability (NCI-H2347; first compound 0.6325 µM) of 0.317 and a relative viability (NCI-H2347; first compound 2 µM) of 0.365. For the same compound, the relative viability (NCI-H2347; first compound 6.325 µM) was 0.42 and the relative viability (NCI-H2347; first compound 20 µM) was 0.313.
